What was measured:
[1] = Solubility of rofecoxib in solvent systems containing one solvent, UV spectrophotometry; assay type: physicochemical
Method: The solubility of rofecoxib was tested in a variety of solvent systems by UV spectrophotometry. A UV spectrophotometry method of evaluating the solubility of rofecoxib was used to determine the solubility of rofecoxib in various solvent systems. Erk et al. describes this method and is incorporated by reference herein in its entirety: Erk et al. Pharmazie. 2004 June; 59(6):453-6.
100 mg of rofecoxib was dissolved in 100 ml of methanol. Dilutions of the stock solution were made into methanol to give a final rofecoxib concentration of 5 μg/ml, 10 μg/ml, 20 μg/ml, 25 μg/ml, 30 μg/ml, 35 μg/ml, 40 μg/ml, 45 μg/ml, and 50 μg/ml. A UV spectrophotometer was utilized to read the absorbance of the samples 279.1 nm. Using Beer's law, a value for the extinction coefficient for rofecoxib was obtained. The value of the extinction coefficient of rofecoxib was determined to be 29.06 and was utilized in future experiments to determine the concentration of rofecoxib in various solvent systems.
100 mg of rofecoxib was added to 1 gram of each solvent. […] The mixtures of rofecoxib and solvents were vortexed for one minute and left at room temperature for one hour. The mixture was vortexed a second time and then left at room temperature overnight. The next morning the samples were vortexed a third time and then centrifuged at 12 k for 5 minutes. The excipient/rofecoxib mixture was transferred to a new tube being careful to not take any of the pellet. Serial dilutions of the rofecoxib solvent solutions were made (1:100 v:v), (1:1000 v/v), and (1:2000 v/v). Solvents without rofecoxib were diluted with methanol and used to blank a Beckman DU-7400 spectrophotometer. The absorbance of the samples was determined at a wavelength of 279.1 nm. The concentration of rofecoxib dissolved in the solvent was calculated using Beer's Law. Concentrations were converted from units of mg/mL to units of mg/g according to the following procedure:
(a) The volume of 1 g of solvent times the calculated mg/ml rofecoxib equals total mg of rofecoxib in 1 g of solvent. e.g. 1 g of a solvent that has a density of 1.05 g/mL is 952 μL. A rofecoxib solution with a concentration of rofecoxib of […] contains 28.17 mg of rofecoxib in 952 μL of solvent.
(b) To calculate the total volume, a mg of rofecoxib is assumed to equal to 1 μl of volume. Add volume of the solvent to the total weight of rofecoxib. 28.17 mg+1000 mg of solvent=1028.17 mg.
(c) To calculate the w/w divide the mg of rofecoxib 28.71 mg by the total weight of rofecoxib with solvent 1028.71 mg and multiply times 1000 mg to get the w/w […]/1028.71 mg*1000 mg=28.62 mg/g of solvent.

[2] = in vivo; cited from earlier work
[3] = Solubility of rofecoxib in various solvents by High Performance Liquid Chromatography; assay type: physicochemical
[4] = Stability of rofecoxib by HPLC after storage for two weeks at 40° C. and 50° C.; assay type: physicochemical
Method: The stability of rofecoxib was assessed by HPLC after storage for two weeks at 40° C. and for two weeks at 50° C.

Solubility of Rofecoxib ([1]; in 2-Methylpentane-2,4-diol): 0.59 mg/g
Solubility of Rofecoxib ([1]; in Acetone): 23.58 mg/g
Solubility of Rofecoxib ([1]; in Benzyl Alcohol): 19.54 mg/g
Solubility of Rofecoxib ([1]; in Diethyl sebacate): 1.3 mg/g
Solubility of Rofecoxib ([1]; in Diethylene glycol monoethyl ether): 9.07 mg/g
Solubility of Rofecoxib ([1]; in Diisopropyl adipate): 2.04 mg/g
Solubility of Rofecoxib ([1]; in Dimethyl Isosorbide): 39.14 mg/g
Solubility of Rofecoxib ([1]; in Dimethyl Sulfoxide): 143.6 mg/g
Solubility of Rofecoxib ([1]; in Ethyl acetate): 5.5 mg/g
Solubility of Rofecoxib ([1]; in Isopropyl tetradecanoate): 0.0017 mg/g
Solubility of Rofecoxib ([1]; in N-methyl-2-pyrrolidone): 198 mg/g
Solubility of Rofecoxib ([1]; in Oleic acid): 0.402 mg/g
Solubility of Rofecoxib ([1]; in Polyethylene glycol-400 (PEG)): 13.14 mg/g
Solubility of Rofecoxib ([1]; in Polysorbate 20 (PS20)): 9.18 mg/g
Solubility of Rofecoxib ([1]; in Polysorbate 80 (PS80)): 9.71 mg/g
Solubility of Rofecoxib ([1]; in Propylene Carbonate): 49.43 mg/g
Solubility of Rofecoxib ([1]; in Propylene Glycol): 0.302 mg/g
Solubility of Rofecoxib ([1]; in Propylene glycol diacetate): 6.93 mg/g
Solubility of Rofecoxib ([1]; in alpha-Terpineol 95.0+ %): 0.313 mg/g
Solubility of Rofecoxib ([3]; in 1.25% Niacinamide (Aqueous), HPLC): No observable solubility
Solubility of Rofecoxib ([3]; in 10% Sodium Lauryl Sulfate (Aqueous), HPLC): No observable solubility*
Solubility of Rofecoxib ([3]; in Dehydrated Alcohol, HPLC): No observable solubility
Solubility of Rofecoxib ([3]; in Diethyl Sebacate, HPLC): No observable solubility
Solubility of Rofecoxib ([3]; in Diethylene Glycol Monoethyl Ether, HPLC): 0.5-1.0 % w/w
Solubility of Rofecoxib ([3]; in Diisoproovl Adipate, HPLC): No observable solubility
Solubility of Rofecoxib ([3]; in Dimethyl Isosorbide, HPLC): 2.5-3.5% w/w
Solubility of Rofecoxib ([3]; in Ethyl Acetate, HPLC): <0.5% w/w
Solubility of Rofecoxib ([3]; in Glycervl Monooleate, HPLC): No observable solubility
Solubility of Rofecoxib ([3]; in Hydrochloric Acid (0.1 N), HPLC): No observable solubility
Solubility of Rofecoxib ([3]; in Laureth-4, HPLC): No observable solubility
Solubility of Rofecoxib ([3]; in Medium Chain Triglycerides, HPLC): No observable solubility
Solubility of Rofecoxib ([3]; in N-Methvl-Pyrrolidone, HPLC): 4.4-5.4 % w/w
Solubility of Rofecoxib ([3]; in Oleyl Alcohol, HPLC): No observable solubility
Solubility of Rofecoxib ([3]; in PEG400, HPLC): 1.0-1.5 % w/w
Solubility of Rofecoxib ([3]; in Polysorbate 80, HPLC): No observable solubility
Solubility of Rofecoxib ([3]; in Propylene Carbonate, HPLC): 3.4-4.3 % w/w
Solubility of Rofecoxib ([3]; in Propylene Glycol Diacetate, HPLC): <0.5 % w/w
Solubility of Rofecoxib ([3]; in Sodium Hydroxide (0.1 N), HPLC): No observable solubility
Solubility of Rofecoxib ([3]; in Sorbitol Solution, HPLC): No observable solubility
Solubility of Rofecoxib ([3]; in Water pH 3, HPLC): No observable solubility
Solubility of Rofecoxib ([3]; in Water pH 5.5, HPLC): No observable solubility
Solubility of Rofecoxib ([3]; in Water pH 7.4, HPLC): No observable solubility
Rofecoxib Concentration ([4]; Acetone, T = 0 weeks): 2.549 % w/w
Rofecoxib Concentration ([4]; Acetone, T = 2 weeks 40° C. storage): 2.549 % w/w
Rofecoxib Concentration ([4]; Acetone, T = 2 weeks 50° C. storage): 2.549 % w/w
Rofecoxib Concentration ([4]; Benzyl alcohol, T = 0 weeks): 1.447 % w/w
Rofecoxib Concentration ([4]; Benzyl alcohol, T = 2 weeks 40° C. storage): 1.474 % w/w
Rofecoxib Concentration ([4]; Benzyl alcohol, T = 2 weeks 50° C. storage): 1.470 % w/w
Rofecoxib Concentration ([4]; Diethylene glycol monoethyl ether, T = 0 weeks): 0.687 % w/w
Rofecoxib Concentration ([4]; Diethylene glycol monoethyl ether, T = 2 weeks 40° C. storage): 0.672 % w/w
Rofecoxib Concentration ([4]; Diethylene glycol monoethyl ether, T = 2 weeks 50° C. storage): 0.677 % w/w
Rofecoxib Concentration ([4]; Dimethyl isosorbide, T = 0 weeks): 2.641 % w/w
Rofecoxib Concentration ([4]; Dimethyl isosorbide, T = 2 weeks 40° C. storage): 2.515 % w/w
Rofecoxib Concentration ([4]; Dimethyl isosorbide, T = 2 weeks 50° C. storage): 2.511 % w/w
Rofecoxib Concentration ([4]; Ethyl acetate, T = 0 weeks): 0.465 % w/w
Rofecoxib Concentration ([4]; Ethyl acetate, T = 2 weeks 40° C. storage): 0.479 % w/w
Rofecoxib Concentration ([4]; Ethyl acetate, T = 2 weeks 50° C. storage): 0.476 % w/w
Rofecoxib Concentration ([4]; N-methyl-2-pyrrolidone, T = 0 weeks): 5.046 % w/w
Rofecoxib Concentration ([4]; N-methyl-2-pyrrolidone, T = 2 weeks 40° C. storage): 5.057 % w/w
Rofecoxib Concentration ([4]; N-methyl-2-pyrrolidone, T = 2 weeks 50° C. storage): 5.055 % w/w
Rofecoxib Concentration ([4]; PEG 400, T = 0 weeks): 1.013 % w/w
Rofecoxib Concentration ([4]; PEG 400, T = 2 weeks 40° C. storage): 0.987 % w/w
Rofecoxib Concentration ([4]; PEG 400, T = 2 weeks 50° C. storage): 0.993 % w/w
Rofecoxib Concentration ([4]; Propylene Carbonate, T = 0 weeks): 3.471 % w/w
Rofecoxib Concentration ([4]; Propylene Carbonate, T = 2 weeks 40° C. storage): 3.456 % w/w
Rofecoxib Concentration ([4]; Propylene Carbonate, T = 2 weeks 50° C. storage): 3.463 % w/w
Rofecoxib Concentration ([4]; Propylene Glycol Diacetate, T = 0 weeks): 0.519 % w/w
Rofecoxib Concentration ([4]; Propylene Glycol Diacetate, T = 2 weeks 40° C. storage): 0.527 % w/w
Rofecoxib Concentration ([4]; Propylene Glycol Diacetate, T = 2 weeks 50° C. storage): 0.520 % w/w
solubility after storage ([4]; two weeks at 40° C. and 50° C., in the solvents in Table 12): remained soluble
Compound: CS(=O)(=O)c1ccc(C2=C(c3ccccc3)C(=O)OC2)cc1 [Rofecoxib]
half-life [2]: 17 h
